Reference: publication PMC11504489, “Potent Biological Activity of Fluorinated Derivatives of 2-Deoxy-D-Glucose in a Glioblastoma Model” (Biomedicines, 2024)

Target: T1, hexokinase II (HKII) (Homo sapiens, UniProt P52789)
T1 construct: gene HK2; recombinant HKII expressed in E. coli, first 16 aa from the N-terminal removed
T1 sequence (P52789 17-917): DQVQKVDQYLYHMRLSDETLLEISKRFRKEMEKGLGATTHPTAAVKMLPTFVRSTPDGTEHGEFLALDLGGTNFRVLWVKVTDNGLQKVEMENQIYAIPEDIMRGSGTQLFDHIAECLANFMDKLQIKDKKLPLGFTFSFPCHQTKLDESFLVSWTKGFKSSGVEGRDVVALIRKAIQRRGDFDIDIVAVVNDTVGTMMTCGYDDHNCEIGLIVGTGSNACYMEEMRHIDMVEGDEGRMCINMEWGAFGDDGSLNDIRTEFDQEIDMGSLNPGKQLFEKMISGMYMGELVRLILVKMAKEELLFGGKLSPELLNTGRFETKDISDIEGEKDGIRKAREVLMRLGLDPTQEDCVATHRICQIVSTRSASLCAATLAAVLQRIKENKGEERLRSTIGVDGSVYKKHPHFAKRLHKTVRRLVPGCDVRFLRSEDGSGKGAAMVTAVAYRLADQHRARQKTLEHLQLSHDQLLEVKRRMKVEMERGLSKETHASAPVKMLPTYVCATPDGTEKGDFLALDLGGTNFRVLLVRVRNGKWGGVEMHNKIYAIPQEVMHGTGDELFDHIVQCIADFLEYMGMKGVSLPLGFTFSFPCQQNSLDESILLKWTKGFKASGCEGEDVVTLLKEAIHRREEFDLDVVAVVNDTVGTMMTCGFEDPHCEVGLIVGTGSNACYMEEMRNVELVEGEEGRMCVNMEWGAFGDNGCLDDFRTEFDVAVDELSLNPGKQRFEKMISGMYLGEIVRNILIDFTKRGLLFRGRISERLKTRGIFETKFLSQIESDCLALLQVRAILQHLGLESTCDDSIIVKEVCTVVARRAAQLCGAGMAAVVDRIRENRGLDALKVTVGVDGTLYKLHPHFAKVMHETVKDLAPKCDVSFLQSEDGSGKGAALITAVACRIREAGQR
Assay: […] NMR CPMG transverse relaxation titration
Type: binding
Conditions: read-out: Kα [mol m^-3]

With `OC[C@H]1OC(O)C(F)(F)[C@@H](O)[C@@H]1O` (mixture of isomers) [2,2-diFG, 2-deoxy-2,2-difluoro-D-glucopyranose] the Kd was 960 ± 200 µM.
